≈ marks a conversion by molar mass, not a printed value.

In one assay the test system is Cryptococcus neoformans. Kind of assay: Antifungal activity against Cryptococcus neoformans. The class given is functional.
The test system of a further assay is Candida albicans. Briefly: Antifungal activity against Candida albicans. Format: functional.

As usually defined, the MIC is the least concentration at which growth counts as inhibited. Low values mean greater potency, high ones weaker potency. `COC1=C(Br)[C@H](O)[C@@]2(C=C1Br)CC(C(=O)NCCc1[nH]c(=N)[nH]c1-c1cc(O)c3[nH]cc(O)c(=O)c3c1O)=NO2` [CERATINADIN B]: the MIC in the assay on Cryptococcus neoformans stood at 8 µg/mL (≈ 11.7 µM); against Candida albicans, 4 µg/mL (≈ 5.86 µM).
On to `COC1=C(Br)[C@H](O)[C@@]2(C=C1Br)CC(C(=O)NCCc1cn(-c3cc(O)c4[nH]cc(O)c(=O)c4c3O)cn1)=NO2` [CERATINADIN A], for which the minimal inhibitory concentration (MIC) in the assay with Cryptococcus neoformans was 4 µg/mL (≈ 5.99 µM); in the assay with Candida albicans, 2 µg/mL (≈ 3 µM).
Turning to `N=c1[nH]cc(CCNC(=O)C2=NO[C@]3(C=C(Br)C(=O)[C@@H](Br)[C@@H]3O)C2)[nH]1` [CERATINADIN C], the minimum inhibitory concentration (MIC) against Cryptococcus neoformans and against Candida albicans was above 32 µg/mL in each case.

For the origin of these results see ChEMBL document CHEMBL1208716, “Ceratinadins A-C, new bromotyrosine alkaloids from an Okinawan marine sponge Pseudoceratina sp” (2010).
